Data on 16 molecules can be found in patent publication US12281102B2, “Inhibitors of APOL1 and methods of using same” (Vertex Pharmaceuticals Incorporated, priority 2020, dated 2025).

For one assay, the target named is T1, G1 APOL1 (Homo sapiens, UniProt O14791, I384M/S342G).
T1 construct: expressed in transfected cells
T1 sequence (O14791 28-398 S342G/I384M): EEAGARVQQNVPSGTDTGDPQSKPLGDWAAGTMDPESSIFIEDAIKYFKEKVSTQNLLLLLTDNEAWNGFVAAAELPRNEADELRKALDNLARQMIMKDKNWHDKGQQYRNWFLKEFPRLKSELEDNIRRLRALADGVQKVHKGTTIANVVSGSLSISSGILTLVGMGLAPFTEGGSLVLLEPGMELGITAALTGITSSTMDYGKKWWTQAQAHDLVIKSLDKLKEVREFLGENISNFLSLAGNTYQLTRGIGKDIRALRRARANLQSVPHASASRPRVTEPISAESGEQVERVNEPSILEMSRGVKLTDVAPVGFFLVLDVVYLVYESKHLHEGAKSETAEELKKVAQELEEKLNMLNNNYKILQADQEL
Briefly: Acute APOL1 Thallium Assay with inducible stable clones of HEK 293 cells. Type of assay: cell-based. To be noted: HEK 293 T-Rex inducible stable clone expressing G1 APOL1; read-out: Thallium Assay (IC50). Summed up:
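APOL1 pore function was measured as thallium influx, detected by a Tl+-sensitive fluorescent dye loaded as AM ester, on a FLIPR Tetra after Tl+ addition. Cells were HEK T-Rex G1 APOL1 clone DC3.25, 26,000 per well, induced with tetracycline at plating in Opti-MEM assay medium.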

The next assay has as its target T2, APOL1 G1 Protein (Homo sapiens, UniProt O14791, I384M/S342G).
T2 sequence (O14791 28-398 S342G/I384M): T1 sequence (O14791 28-398 S342G/I384M)
Briefly: Trypanosoma brucei brucei lysis assay using APOL1 recombinant protein (AlamarBlue viability). The class given is cell-based. To be noted: Trypanosoma brucei brucei lysis with recombinant APOL1 protein. In general terms: Alamar Blue is a resazurin reagent that responds to reducing activity.

Usually IC50 stands for the concentration that inhibits the measured activity by half. `NCC1CC(c2c(-c3ccc(OC(F)F)cc3)[nH]c3c(F)cc(F)cc23)C1` (centres unmarked) [Compound 182]: the IC50 on G1 APOL1 and on APOL1 G1 Protein was less than 250 nM throughout.

With `COc1ccc(-c2[nH]c3c(F)cc(F)cc3c2C2CC(CN)C2)cc1` (centres unmarked) [Compound 183], the IC50 on G1 APOL1 and at APOL1 G1 Protein was less than 250 nM in each case.

In the case of `Cc1ccc(-c2[nH]c3c(F)cc(F)cc3c2C2CC(CN)C2)cc1` (centres unmarked) [Compound 184], the IC50 on G1 APOL1 and on APOL1 G1 Protein was less than 250 nM in each case.

In the case of `N#Cc1ccc(-c2[nH]c3c(F)cc(F)cc3c2C2CC(CN)C2)cc1` (centres unmarked) [Compound 185], the IC50 on G1 APOL1 and at APOL1 G1 Protein was less than 250 nM each time.

For `NC[C@H]1C[C@@H](c2c(-c3ccc(F)cc3)[nH]c3c(F)cc(F)cc32)C1` [Compound 187, ((1s,3s)-3-(5,7-difluoro-2-(4-fluorophenyl)-1H-indol-3-yl)cyclobutyl)methanamine], the half-maximal inhibitory concentration (IC50) on G1 APOL1 and on APOL1 G1 Protein was less than 250 nM throughout.

Regarding `NC[C@H]1C[C@H](c2c(-c3ccc(F)cc3)[nH]c3c(F)cc(F)cc32)C1` [Compound 188, ((1r,3r)-3-(5,7-difluoro-2-(4-fluorophenyl)-1H-indol-3-yl)cyclobutyl)methanamine], the concentration for half-maximal inhibition (IC50) on G1 APOL1 and at APOL1 G1 Protein was less than 250 nM in each case.

As to `O=C(CO)NCC1CC(c2c(-c3ccc(F)cc3)[nH]c3c(F)cc(F)cc23)C1` (centres unmarked) [Compound 214], the IC50 on G1 APOL1 and at APOL1 G1 Protein was 250 to 1000 nM each time.

As to `OCCNCC1CC(c2c(-c3ccc(F)cc3)[nH]c3c(F)cc(F)cc23)C1` (centres unmarked) [Compound 374, 2-[[3-[5,7-difluoro-2-(4-fluorophenyl)-1H-indol-3-yl]cyclobutyl]methylamino]ethanol], the IC50 on G1 APOL1 and at APOL1 G1 Protein was less than 250 nM throughout.

Take `COCCNCC1CC(c2c(-c3ccc(F)cc3)[nH]c3c(F)cc(F)cc23)C1` (centres unmarked) [Compound 375]: the IC50 at G1 APOL1 and on APOL1 G1 Protein was less than 250 nM in each case.

Turning to `OCC1CC(c2c(-c3ccc(F)cc3)[nH]c3c(F)cc(F)cc23)C1` (centres unmarked) [Compound 424, [3-[5,7-difluoro-2-(4-fluorophenyl)-1H-indol-3-yl]cyclobutyl]methanol], the IC50 at G1 APOL1 and at APOL1 G1 Protein was less than 250 nM each time.

With `CC1(CN)CC(c2c(-c3ccc(F)cc3)[nH]c3c(F)cc(F)cc23)C1` (centres unmarked) [Compound 426, [3-[5,7-difluoro-2-(4-fluorophenyl)-1H-indol-3-yl]-1-methyl-cyclobutyl]methanamine], the 50% inhibitory concentration (IC50) was 250 to 1000 nM on G1 APOL1 and less than 250 nM on APOL1 G1 Protein.

As for `NCC1(O)CC(c2c(-c3ccc(F)cc3)[nH]c3c(F)cc(F)cc23)C1` (centres unmarked) [Compound 427, 1-(aminomethyl)-3-[5,7-difluoro-2-(4-fluorophenyl)-1H-indol-3-yl]cyclobutanol], the half-maximal inhibitory concentration (IC50) on G1 APOL1 is 250 to 1000 nM; at APOL1 G1 Protein it was less than 250 nM.

On to `NC1CC2(C1)CC(c1c(-c3ccc(F)cc3)[nH]c3c(F)cc(F)cc13)C2` (centres unmarked) [Compound 432, 6-[5,7-difluoro-2-(4-fluorophenyl)-1H-indol-3-yl]spiro[3.3]heptan-2-amine], for which the IC50 on G1 APOL1 is greater than 1000 nM; at APOL1 G1 Protein, less than 250 nM.

With `NC1CCC(c2c(-c3ccc(F)cc3)[nH]c3c(F)cc(F)cc23)CC1` (centres unmarked) [Compound 433, 4-[5,7-difluoro-2-(4-fluorophenyl)-1H-indol-3-yl]cyclohexanamine], the IC50 on G1 APOL1 and on APOL1 G1 Protein was less than 250 nM throughout.

For `O=C(C1CCO1)N1CCC(Cc2c(-c3ccc(F)cc3)[nH]c3c(F)cc(F)cc23)C1` (centres unmarked) [Compound 443, [3-[[5,7-difluoro-2-(4-fluorophenyl)-1H-indol-3-yl]methyl]pyrrolidin-1-yl]-(oxetan-2-yl)methanone], the IC50 on G1 APOL1 and at APOL1 G1 Protein was 250 to 1000 nM each time.

On to `CC(=O)N1CCC(Cc2c(-c3ccc(F)cc3)[nH]c3c(F)cc(F)cc23)C1` (centres unmarked) [Compound 444, 1-(3-((5,7-difluoro-2-(4-fluorophenyl)-1H-indol-3-yl)methyl)pyrrolidin-1-yl)ethan-1-one], for which the IC50 was greater than 1000 nM at G1 APOL1 and 250 to 1000 nM on APOL1 G1 Protein.
